We go through 13 compounds from patent US20260008760A1, “DIPEPTIDYL PEPTIDASE 1 INHIBITORS AND USES THEREOF” (Insmed Incorporated, priority 2024, published 2026).

The target in one experiment is human DPP1 enzyme (Homo sapiens, UniProt P53634). As to the kind of experiment: Human DPP1 Enzyme IC50 Assay. Further details: was first proteolytically processed into its mature form using recombinant human cathepsin L; purchased R&D Systems. The format is biochemical. The method in brief: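 IC50 came from a four-parameter fit of activity relative to no-compound control, with fluorescence (Ex 350/Em 450 nm) read every 5 min for 90 min at 37 °C using 400 μM final H-Gly-Arg-AMC. Cathepsin L-matured human recombinant DPP1 was preincubated 10 min with compound at pH 6.0 (MES, DTT, 1% DMSO).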
Chain of human DPP1 enzyme (P53634 25-134 limits assumed): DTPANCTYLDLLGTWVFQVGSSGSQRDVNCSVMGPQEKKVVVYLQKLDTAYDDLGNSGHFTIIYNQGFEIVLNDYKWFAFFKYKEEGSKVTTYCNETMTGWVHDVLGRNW
Chain of human DPP1 enzyme (P53634 231-394 limits assumed): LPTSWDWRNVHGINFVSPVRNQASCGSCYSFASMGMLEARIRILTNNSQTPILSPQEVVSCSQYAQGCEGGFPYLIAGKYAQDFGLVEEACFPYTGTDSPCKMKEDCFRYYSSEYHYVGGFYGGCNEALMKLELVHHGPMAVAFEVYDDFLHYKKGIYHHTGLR
Chain of human DPP1 enzyme (P53634 395-463 limits assumed): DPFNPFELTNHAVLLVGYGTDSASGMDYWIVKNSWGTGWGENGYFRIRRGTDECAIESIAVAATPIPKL

Another experiment has as its target T1, active mouse DPP1 enzyme (Mus musculus, UniProt P97821).
T1 construct: Each subunit is composed of an N-terminal fragment, a heavy chain and a light chain; purchased R&D Systems
As to the kind of experiment: Mouse DPP1 Enzyme IC50 Assay. The class given is biochemical. As for the experimental part: Example 96: Mouse DPP1 Enzyme IC50 Assay
Test articles were applied to active mouse DPP1 enzyme (R&D Systems; Minneapolis, MN) in Assay Buffer (50 mM MES pH 5.5, 50 mM NaCl, 5 mM DTT) in a total reaction volume of 125 μL. 25 μL of compound in Assay Buffer plus […] was first added to 50 μL of active mouse DPP1 enzyme at a concentration of 62.5 pg/μL and allowed to pre-incubate for 10 minutes at 37° C. after which 50 μL of […] H-Gly-Arg-AMC substrate (Bachem; St. Torrance, CA) was added, giving final substrate concentration of 400 µM and a final DMSO concentration of […]. Substrate cleavage was measured for 90 minutes at 37° C., with fluorescence at Excitation/Emission 350/450 nm measured every 5 minutes. DPP1 concentration was interpolated based on its activity relative to a standard curve of recombinant active mouse DPP enzyme. IC50 values for each compound were calculated via the XLFit (IDBS Version 5.3.1.3) Add-On to Microsoft Excel using the four parameter fit equation y=(A+((B−A)/(1+((C/x)^D)))), which appears as equation number 205 (4 Parameter Logistic Model or Sigmoidal Dose-Response Model) in XLFit. Default constraints were used for each Parameter. IC50 was defined as the compound concentration at which 50% of enzyme activity was inhibited when compared to the no-compound control.
In Table 2, *** represent average IC50≤5 nM, ** represents average IC50 in the range of 5-20 nM, and * represents average IC50 in the range of ≥20 nM, where the designations were made solely based on the average value without taking into account of the standard deviations.

For a further experiment, the target named is DPP1 in HL-60 cells (Homo sapiens, UniProt P53634). Kind of experiment: DPP1 Cell IC50 assay. The format is cell-based. The note with it: 60 min pre-incubation, H-Gly-Phe-AFC substrate, average of n runs. Further details: host or cells: HL-60 cells. The method in brief:
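Intracellular DPP1 activity read as AFC fluorescence (Ex/Em 400/505 nm) after 30 min with H-Gly-Phe-AFC (500 μM stock), following 60 min compound pre-incubation at 37° C with HL-60 cells at 5×10^5 live cells per mL in PBS. IC50 by 4-parameter fit against DMSO-only controls.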

The mark [1] stands for this setting: activated recombinant human DPP1, 400 μM H-Gly-Arg-AMC, 10 minutes pre-incubation at 37° C., pH 6.0, average of n runs, read-out: Avg. IC50 (Human DPP1 enzyme IC50 value ranges).
[2] abbreviates: active mouse DPP1 enzyme, H-Gly-Arg-AMC substrate, 10 minutes pre-incubation at 37° C., pH 5.5, average of n runs, read-out: Avg. IC50 (Mouse DPP1 enzyme IC50 value ranges).
[3] abbreviates: read-out: Avg. IC50 (DPP1 Cell IC50 value ranges).

Values joined by “and” are separate entries in the source; they are usually repeats but may differ in a detail not shown here. Equal values may be shown once. Read-outs that look alike come from different tables or passages of the source.

Chain of DPP1 in HL-60 cells (P53634 25-463): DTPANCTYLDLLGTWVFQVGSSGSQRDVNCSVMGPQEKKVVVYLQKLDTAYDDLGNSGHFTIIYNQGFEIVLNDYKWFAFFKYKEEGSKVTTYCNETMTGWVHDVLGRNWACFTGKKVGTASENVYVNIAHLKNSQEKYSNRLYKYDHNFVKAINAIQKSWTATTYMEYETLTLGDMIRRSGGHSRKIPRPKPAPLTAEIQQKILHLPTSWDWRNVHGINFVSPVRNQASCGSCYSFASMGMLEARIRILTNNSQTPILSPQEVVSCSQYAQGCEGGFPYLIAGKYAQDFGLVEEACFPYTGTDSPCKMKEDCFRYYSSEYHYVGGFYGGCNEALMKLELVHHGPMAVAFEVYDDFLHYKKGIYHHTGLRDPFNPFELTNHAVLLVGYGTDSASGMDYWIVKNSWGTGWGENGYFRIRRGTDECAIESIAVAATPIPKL
T1 sequence (P97821 25-134 limits assumed): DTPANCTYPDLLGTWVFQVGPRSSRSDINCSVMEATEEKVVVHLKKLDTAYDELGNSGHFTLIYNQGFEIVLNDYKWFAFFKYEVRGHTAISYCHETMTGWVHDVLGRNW
T1 sequence (P97821 231-393 limits assumed): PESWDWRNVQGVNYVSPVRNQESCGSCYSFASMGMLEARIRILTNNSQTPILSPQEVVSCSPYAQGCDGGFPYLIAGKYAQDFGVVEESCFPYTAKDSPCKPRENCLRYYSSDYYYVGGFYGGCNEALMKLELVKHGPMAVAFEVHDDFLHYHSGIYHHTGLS
T1 sequence (P97821 394-462 limits assumed): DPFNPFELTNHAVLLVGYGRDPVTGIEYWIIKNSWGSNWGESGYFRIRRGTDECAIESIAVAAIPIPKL

A word on the IC50: it is the point on the concentration scale where inhibition reaches its midpoint. For the compound `N#C[C@H](Cc1ccc(-c2ccc3c(c2)CCNC3=O)cc1)NC(=O)[C@@H]1CNCCCO1` [Compound A2, (2S)—N-[(1S)-1-cyano-2-[4-(1-oxo-3,4-dihydro-2H-isoquinolin-6-yl)phenyl]ethyl]-1,4-oxazepane-2-carboxamide], the values for the IC50 on human DPP1 enzyme (setting [1]), on active mouse DPP1 enzyme (setting [2]) and at DPP1 in HL-60 cells (setting [3]) were greater than 15 nM, greater than 20 nM and greater than 2.5 nM, respectively.
`CN1CCC(n2ncc3ccc(-c4ccc(C[C@@H](C#N)NC(=O)[C@@H]5CNCCCO5)c(F)c4)cc32)CC1` [Compound A3, (2S)—N-[(1S)-1-cyano-2-{2-fluoro-4-[1-(1-methylpiperidin-4-yl)indazol-6-yl]phenyl}ethyl]-1,4-oxazepane-2-carboxamide]: the figures for the IC50 at human DPP1 enzyme (setting [1]), on active mouse DPP1 enzyme (setting [2]) and at DPP1 in HL-60 cells (setting [3]) were 5 to 15 nM, greater than 20 nM and greater than 2.5 nM, respectively.
Regarding `N#C[C@H](Cc1ccc(-c2ccc3c(c2)CCCS3)cc1)NC(=O)[C@@H]1CNCCCO1` [Compound A5, (2S)—N-[(1S)-1-cyano-2-[4-(3,4-dihydro-2H-1-benzothiopyran-6-yl)phenyl]ethyl]-1,4-oxazepane-2-carboxamide], the figures for the IC50 on human DPP1 enzyme (setting [1]), at active mouse DPP1 enzyme (setting [2]) and on DPP1 in HL-60 cells (setting [3]) were greater than 15 nM, greater than 20 nM and greater than 2.5 nM, respectively.
For `Cc1cn2cc(-c3ccc(C[C@@H](C#N)NC(=O)[C@@H]4CNCCCO4)cc3)cc2c(C)n1` [Compound A8, (2S)—N-[(1S)-1-cyano-2-(4-{1,3-dimethylpyrrolo[1,2-a]pyrazin-7-yl}phenyl)ethyl]-1,4-oxazepane-2-carboxamide], the figures for the IC50 at human DPP1 enzyme (setting [1]), on active mouse DPP1 enzyme (setting [2]) and at DPP1 in HL-60 cells (setting [3]) were greater than 15 nM, greater than 20 nM and greater than 2.5 nM, respectively.
On the same counts, the results for `N#C[C@H](Cc1ccc(-c2ccc3c(n2)CCCN3)cc1)NC(=O)[C@@H]1CNCCCO1` [Compound A10, (2S)—N-[(1S)-1-cyano-2-[4-(5,6,7,8-tetrahydro-1,5-naphthyridin-2-yl)phenyl]ethyl]-1,4-oxazepane-2-carboxamide] are greater than 15 nM, greater than 20 nM and greater than 2.5 nM.
On the same counts, the results for `CN1C(=O)CCc2cc(-c3ccc(C[C@@H](C#N)NC(=O)[C@@H]4CNCCCO4)cc3)ccc21` [Compound A21, (2S)—N-[(1S)-1-cyano-2-[4-(1-methyl-2-oxo-3,4-dihydroquinolin-6-yl)phenyl]ethyl]-1,4-oxazepane-2-carboxamide] are greater than 15 nM, greater than 20 nM and greater than 2.5 nM.
Regarding `Cc1cn2cc(-c3ccc(C[C@@H](C#N)NC(=O)[C@@H]4CNCCCCO4)cc3)cc2c(C)n1` [Compound A27, (2S)—N-[(1S)-1-cyano-2-(4-{1,3-dimethylpyrrolo[1,2-a]pyrazin-7-yl}phenyl)ethyl]-1,4-oxazocane-2-carboxamide], the IC50 at human DPP1 enzyme (setting [1]) is greater than 15 nM; at active mouse DPP1 enzyme (setting [2]), greater than 20 nM; at DPP1 in HL-60 cells (setting [3]), > 2.5 nM and 1 to 2.5 nM.
For the compound `Cc1cn2cc(-c3ccc(C[C@@H](C#N)NC(=O)[C@@H]4CNCCCCO4)c(F)c3)cc2c(C)n1` [Compound A28, (2S)—N-[(1S)-1-cyano-2-(4-{1,3-dimethylpyrrolo[1,2-a]pyrazin-7-yl}-2-fluorophenyl)ethyl]-1,4-oxazocane-2-carboxamide], the IC50 at human DPP1 enzyme (setting [1]) is greater than 15 nM; at active mouse DPP1 enzyme (setting [2]) it was greater than 20 nM; on DPP1 in HL-60 cells (setting [3]) it was 1 to 2.5 nM.
On the same counts, the results for `CO[C@@H]1CCNC[C@@H](C(=O)N[C@H](C#N)Cc2ccc(-c3cc4c(C)nc(C)cn4c3)cc2F)OC1` [Compound A47, (2S,7R)—N-[(1S)-1-cyano-2-(4-{1,3-dimethylpyrrolo[1,2-a]pyrazin-7-yl}-2-fluorophenyl)ethyl]-7-methoxy-1,4-oxazocane-2-carboxamide] are less than 5 nM, less than 5 nM and 1 to 2.5 nM.
As to `N#C[C@H](Cc1cc2c(cc1F)-c1cc(C3COC3)c(F)cc1CO2)NC(=O)[C@@H]1CNCCCO1` [Compound B2, (2S)—N-{1-cyano-2-[2,8-difluoro-9-(oxetan-3-yl)-6H-benzo[c]chromen-3-yl]ethyl}-1,4-oxazepane-2-carboxamide], the IC50 lay within 5 to 15 nM on human DPP1 enzyme, 5 to 20 nM at active mouse DPP1 enzyme and 1 to 2.5 nM on DPP1 in HL-60 cells (Avg. IC50 (DPP1 Cell IC50 value ranges)).
Turning to `N#Cc1ccc2c(c1)COc1cc(CC(C#N)NC(=O)[C@@H]3CNCCCCO3)c(F)cc1-2` (stereo partly drawn) [Compound B7, (2S)—N-(1-cyano-2-(8-cyano-2-fluoro-6H-benzo[c]chromen-3-yl)ethyl)-1,4-oxazocane-2-carboxamide], the IC50 is greater than 15 nM at human DPP1 enzyme (setting [1]), greater than 20 nM at active mouse DPP1 enzyme (setting [2]) and greater than 2.5 nM on DPP1 in HL-60 cells (setting [3]).
For `N#C[C@H](Cc1cc2c(cc1F)-c1cc(C3COC3)c(F)cc1CO2)NC(=O)[C@@H]1CNCCCCO1` [Compound B10-B] the same measures were 5 to 15 nM, less than 5 nM and 1 to 2.5 nM.
On the same counts, the results for `CO[C@@H]1CCNC[C@@H](C(=O)N[C@H](C#N)Cc2ccc(-c3ccc(C#N)cc3)cc2F)OC1` [Compound F4, (2S,7R)—N—((S)-1-cyano-2-(4′-cyano-3-fluoro-[1,1′-biphenyl]-4-yl)ethyl)-7-methoxy-1,4-oxazocane-2-carboxamide] are less than 5 nM, less than 5 nM and less than 1 nM.
